Measurements from patent US20150289513A1, “USE OF A COMPOUND COMPRISING A POLYFLUOROBENZYL MOIETY AGAINST INSECTICIDE-RESISTANT PESTS” (priority 2012, published 2015).

Legend:
Format in all cases: in vivo
[1] = tested on: Anopheles gambiae (strain: Akron); assay: Glazed tile contact test, knock-down
Procedure: (§1) To produce a suitable preparation Transfluthrin was dissolved in acetone. The active compound solution was pipetted onto a glazed tile and, after drying, adult mosquitoes of the species: • Anopheles gambiae (target-site-resistant and metabolic-resistant strain: RSPH), • Anopheles gambiae (target-site-resitant and metabolic-resistant strain: Tiassalé), • Anopheles gambiae (tar et-site-resitant and metabolic-resistant strain: Akron), • Anopheles gambiae (target-site-resistant strain: VK7), and • Anopheles funestus (metabolic-resistant strain FUMOZ-R) were placed onto the treated tile (each strain was tested on separate tiles). The exposition time was 30 minutes.
(§2) 0.25 hours, 0.5 hours, 1 hour, 2 hour, 3 hour, 4 hour and 24 hours after contact to the treated surface, the knock-down proportion of the test animals in % was determined. Here, 100% (effect) means that all mosquitoes have been killed; 0% (effect) means that none of the mosquitoes have been killed.

[2] = tested on: Anopheles gambiae (strain: Tiassalé); assay: Glazed tile contact test, knock-down
Procedure: as §1, §2

[3] = tested on: Anopheles gambiae (target-site-resistant strain: VK7); assay: Glazed tile contact test, knock-down
Procedure: as §1, §2

[4] = tested on: Cimex Lectularius, strain Cincinnati (CIN-1); assay: Spray test on bed bugs on glazed tile; conditions: for Amount of animals that are knocked down/killed: 10 bed bugs
Procedure: To produce a suitable preparation Transfluthrin was dissolved in acetone in various concentrations (0.1 mg Transfluthrin/ml; 0.01 mg Transfluthrin/ml and 0.001 mg Transfluthrin/ml). Efficacy tests were done by placing 10 bed bug test animals (Cimex Lectularius, strain Cincinnati (CIN-1)) onto a glazed tile. The prepared solutions in various concentractions were sprayed with a glass nozzle onto the bed bugs on the glazed tile. After spraying the bed bugs were transferred to plastic cups. 5 minutes, 10 minutes, 15 minutes, 20 minutes, 0.5 hour, 1 hour, 2 hour, 4 hour and 24 hours after the treatment, the knock-down proportion of the test animals was determined.

[5] = 0.064 g/ha, 0.25 h after contact
[6] = 0.064 g/ha, 0.5 h after contact
[7] = 0.32 g/ha, 0.25 h after contact

## CC1(C)[C@H](C=C(Cl)Cl)[C@H]1C(=O)OCc1c(F)c(F)cc(F)c1F [Transfluthrin, (1R,3S)-3-(2,2-Dichlorovinyl)-2,2-dimethyl-1-cyclopropanecarboxylic acid (2,3,5,6-tetrafluorophenyl)methyl ester]
[1]; [5]
  Effect %: 5%
[1]; [6]
  Effect %: 5%
[1]; 0.064 g/ha, 1 h after contact
  Effect %: 10%
[1]; 0.064 g/ha, 2 h after contact
  Effect %: 10%
[1]; 0.064 g/ha, 3 h after contact
  Effect %: 5%
[1]; 0.064 g/ha, 4 h after contact
  Effect %: 5%
[1]; 0.064 g/ha, 24 h after contact
  Effect %: 15%
[1]; [7]
  Effect %: 5%
[1]; 0.32 g/ha, 0.5 h after contact
  Effect %: 0%
[1]; 0.32 g/ha, 1 h after contact
  Effect %: 5%
[1]; 0.32 g/ha, 2 h after contact
  Effect %: 5%
[1]; 0.32 g/ha, 3 h after contact
  Effect %: 10%
[1]; 0.32 g/ha, 4 h after contact
  Effect %: 5%
[1]; 0.32 g/ha, 24 h after contact
  Effect %: 10%
[1]; 200 g/ha, 0.25 h after contact
  Effect %: 100%
[1]; 200 g/ha, 0.5 h after contact
  Effect %: 100%
[2]; [5]
  Effect %: 5%
[2]; [6]
  Effect %: 10%
[2]; 0.064 g/ha, 1 h after contact
  Effect %: 15%
[2]; 0.064 g/ha, 2 h after contact
  Effect %: 15%
[2]; 0.064 g/ha, 3 h after contact
  Effect %: 15%
[2]; 0.064 g/ha, 4 h after contact
  Effect %: 10%
[2]; 0.064 g/ha, 24 h after contact
  Effect %: 20%
[2]; [7]
  Effect %: 5%
[2]; 0.32 g/ha, 0.5 h after contact
  Effect %: 15%
[2]; 0.32 g/ha, 1 h after contact
  Effect %: 5%
[2]; 0.32 g/ha, 2 h after contact
  Effect %: 10%
[2]; 0.32 g/ha, 3 h after contact
  Effect %: 10%
[2]; 0.32 g/ha, 4 h after contact
  Effect %: 10%
[2]; 0.32 g/ha, 24 h after contact
  Effect %: 15%
[2]; 1.6 g/ha, 0.25 h after contact
  Effect %: 0%
[2]; 1.6 g/ha, 0.5 h after contact
  Effect %: 15%
[2]; 1.6 g/ha, 1 h after contact
  Effect %: 10%
[2]; 1.6 g/ha, 2 h after contact
  Effect %: 5%
[2]; 1.6 g/ha, 3 h after contact
  Effect %: 5%
[2]; 1.6 g/ha, 4 h after contact
  Effect %: 0%
[2]; 1.6 g/ha, 24 h after contact
  Effect %: 10%
[2]; 8 g/ha, 0.25 h after contact
  Effect %: 90%
[2]; 8 g/ha, 0.5 h after contact
  Effect %: 100%
[2]; 8 g/ha, 1 h after contact
  Effect %: 100%
[2]; 8 g/ha, 2 h after contact
  Effect %: 85%
[2]; 8 g/ha, 3 h after contact
  Effect %: 80%
[2]; 8 g/ha, 4 h after contact
  Effect %: 85%
[2]; 8 g/ha, 24 h after contact
  Effect %: 60%
[2]; 40 g/ha, 0.25 h after contact
  Effect %: 100%
[2]; 40 g/ha, 0.5 h after contact
  Effect %: 100%
[2]; 40 g/ha, 1 h after contact
  Effect %: 100%
[2]; 40 g/ha, 2 h after contact
  Effect %: 95%
[2]; 40 g/ha, 3 h after contact
  Effect %: 90%
[2]; 40 g/ha, 4 h after contact
  Effect %: 85%
[2]; 40 g/ha, 24 h after contact
  Effect %: 85%
[2]; 200 g/ha, 0.25 h after contact
  Effect %: 100%
[2]; 200 g/ha, 0.5 h after contact
  Effect %: 100%
[2]; 200 g/ha, 1 h after contact
  Effect %: 100%
[2]; 200 g/ha, 2 h after contact
  Effect %: 100%
[2]; 200 g/ha, 3 h after contact
  Effect %: 100%
[2]; 200 g/ha, 4 h after contact
  Effect %: 100%
[2]; 200 g/ha, 24 h after contact
  Effect %: 85%
[3]; [5]
  Effect %: 5%
[3]; [6]
  Effect %: 5%
[3]; 0.064 g/ha, 1 h after contact
  Effect %: 5%
[3]; 0.064 g/ha, 2 h after contact
  Effect %: 15%
[3]; 0.064 g/ha, 3 h after contact
  Effect %: 15%
[3]; 0.064 g/ha, 4 h after contact
  Effect %: 15%
[3]; 0.064 g/ha, 24 h after contact
  Effect %: 25%
[3]; [7]
  Effect %: 25%
[3]; 0.32 g/ha, 0.5 h after contact
  Effect %: 35%
[3]; 0.32 g/ha, 1 h after contact
  Effect %: 20%
[3]; 0.32 g/ha, 2 h after contact
  Effect %: 20%
[3]; 0.32 g/ha, 3 h after contact
  Effect %: 20%
[3]; 0.32 g/ha, 4 h after contact
  Effect %: 25%
[3]; 0.32 g/ha, 24 h after contact
  Effect %: 30%
[3]; 1.6 g/ha, 0.25 h after contact
  Effect %: 80%
[3]; 1.6 g/ha, 0.5 h after contact
  Effect %: 90%
[3]; 1.6 g/ha, 1 h after contact
  Effect %: 85%
[3]; 1.6 g/ha, 2 h after contact
  Effect %: 80%
[3]; 1.6 g/ha, 3 h after contact
  Effect %: 65%
[3]; 1.6 g/ha, 4 h after contact
  Effect %: 85%
[3]; 1.6 g/ha, 24 h after contact
  Effect %: 65%
[3]; 8 g/ha, 0.25 h after contact
  Effect %: 100%
[3]; 8 g/ha, 0.5 h after contact
  Effect %: 100%
[3]; 8 g/ha, 1 h after contact
  Effect %: 100%
[3]; 8 g/ha, 2 h after contact
  Effect %: 100%
[3]; 8 g/ha, 3 h after contact
  Effect %: 100%
[3]; 8 g/ha, 4 h after contact
  Effect %: 100%
[3]; 8 g/ha, 24 h after contact
  Effect %: 100%
[3]; 40 g/ha, 0.25 h after contact
  Effect %: 100%
[3]; 40 g/ha, 0.5 h after contact
  Effect %: 100%
[3]; 40 g/ha, 1 h after contact
  Effect %: 100%
[3]; 40 g/ha, 2 h after contact
  Effect %: 100%
[3]; 40 g/ha, 3 h after contact
  Effect %: 100%
[3]; 40 g/ha, 4 h after contact
  Effect %: 100%
[3]; 40 g/ha, 24 h after contact
  Effect %: 100%
[3]; 200 g/ha, 0.25 h after contact
  Effect %: 100%
[3]; 200 g/ha, 0.5 h after contact
  Effect %: 100%
[3]; 200 g/ha, 1 h after contact
  Effect %: 100%
[3]; 200 g/ha, 2 h after contact
  Effect %: 100%
[3]; 200 g/ha, 3 h after contact
  Effect %: 100%
[3]; 200 g/ha, 4 h after contact
  Effect %: 100%
[3]; 200 g/ha, 24 h after contact
  Effect %: 100%
[4]; 0.001 mg Transfluthrin/ml Aceton, 10 min after spray
  Amount of animals that are knocked down/killed: 0
[4]; 0.001 mg Transfluthrin/ml Aceton, 15 min after spray
  Amount of animals that are knocked down/killed: 0
[4]; 0.001 mg Transfluthrin/ml Aceton, 20 min after spray
  Amount of animals that are knocked down/killed: 0
[4]; 0.001 mg Transfluthrin/ml Aceton, 30 min after spray
  Amount of animals that are knocked down/killed: 0
[4]; 0.001 mg Transfluthrin/ml Aceton, 60 min after spray
  Amount of animals that are knocked down/killed: 1
[4]; 0.001 mg Transfluthrin/ml Aceton, 120 min after spray
  Amount of animals that are knocked down/killed: 1
[4]; 0.001 mg Transfluthrin/ml Aceton, 240 min after spray
  Amount of animals that are knocked down/killed: 0
[4]; 0.001 mg Transfluthrin/ml Aceton, 1440 min after spray
  Amount of animals that are knocked down/killed: 3
[4]; 0.01 mg Transfluthrin/ml Aceton, 10 min after spray
  Amount of animals that are knocked down/killed: 6
[4]; 0.01 mg Transfluthrin/ml Aceton, 15 min after spray
  Amount of animals that are knocked down/killed: 9
[4]; 0.01 mg Transfluthrin/ml Aceton, 20 min after spray
  Amount of animals that are knocked down/killed: 10
[4]; 0.01 mg Transfluthrin/ml Aceton, 30 min after spray
  Amount of animals that are knocked down/killed: 10
[4]; 0.01 mg Transfluthrin/ml Aceton, 60 min after spray
  Amount of animals that are knocked down/killed: 10
[4]; 0.01 mg Transfluthrin/ml Aceton, 120 min after spray
  Amount of animals that are knocked down/killed: 10
[4]; 0.01 mg Transfluthrin/ml Aceton, 240 min after spray
  Amount of animals that are knocked down/killed: 10
[4]; 0.01 mg Transfluthrin/ml Aceton, 1440 min after spray
  Amount of animals that are knocked down/killed: 7
[4]; 0.1 mg Transfluthrin/ml Aceton, 10 min after spray
  Amount of animals that are knocked down/killed: 9
[4]; 0.1 mg Transfluthrin/ml Aceton, 15 min after spray
  Amount of animals that are knocked down/killed: 10
[4]; 0.1 mg Transfluthrin/ml Aceton, 20 min after spray
  Amount of animals that are knocked down/killed: 10
[4]; 0.1 mg Transfluthrin/ml Aceton, 30 min after spray
  Amount of animals that are knocked down/killed: 10
[4]; 0.1 mg Transfluthrin/ml Aceton, 60 min after spray
  Amount of animals that are knocked down/killed: 10
[4]; 0.1 mg Transfluthrin/ml Aceton, 120 min after spray
  Amount of animals that are knocked down/killed: 10
[4]; 0.1 mg Transfluthrin/ml Aceton, 240 min after spray
  Amount of animals that are knocked down/killed: 10
[4]; 0.1 mg Transfluthrin/ml Aceton, 1440 min after spray
  Amount of animals that are knocked down/killed: 9
[4]; in vivo
  Efficiency against insecticide-resistant bed bug strain: efficient
